Test results: publication PMC6422423, “Constitutively active BRS3 is a genuinely orphan GPCR in placental mammals” (PLoS Biology, 2019)
Entries after “also recorded” stand apart in the source; their conditions may differ. One block for each molecule: values may come before it. *1 amine or outer side, *2 acyl side, *3 side chain or, on linkers, in order; H or OH if unused. Where a SMILES comes first, the peptide text is derived from it. Bridges are numbered along the chain shown (N, C = ends). [ ]: non-standard residue; d: D form. X1 = CC(=O)NC(C(=O)OC(C(C)C)C(N[*:1])C(=O)[*:2])C(O)C(C)C; PhLac = O=C(O)[CH](O)Cc1ccccc1; NMeT = CN[CH](C(=O)O)[CH](C)O; NMeA = CN[CH](C)C(=O)O; NMeDha = C=C(NC)C(=O)O

Experiments:
[1] = system: BRS3 receptors in nonplacental vertebrates; test: ERK1/2 phosphorylation, nonplacental pooled; format: cell-based, koala, platypus, chicken, turtle, frog, and spotted gar; details: cBRS3, tBRS3, sBRS3; inhibitor 25 μM 1 h, then GRP or NMB 1 μM 5 min; HEK293
Method: For ERK1/2 phosphorylation, HEK293 cells were seeded in 24-well plates and transfected with GRPR, NMBR, BRS3, mutants of different species’ BRS3, or an empty vector plasmid, pcDNA3.1-V5-His plasmid (300 ng). […] Each sample with an equal amount of protein was mixed with 6×SDS sample buffer, boiled for 5 min, and separated on 10% SDS-polyacrylamide gel electrophoresis (PAGE) before transferring the proteins onto a PVDF membrane. The membranes were then blocked at room temperature for 1 h with 5% milk powder in Tris-buffered saline-Tween (TBST), followed by subsequent incubation at 4°C overnight in TBST containing the different primary antibodies (1:1,000 dilution). After washing three times (10 min each time) with TBST, the membranes were incubated for 1 h in TBST containing the secondary antibodies (1:2,000 dilution), followed by washing three times (10 min each time) with TBST, prior to detection by chemiluminescence.

[2] = system: BRS3 receptors in nonplacental vertebrates; test: Intracellular calcium assay, nonplacental pooled; format: cell-based, koala, platypus, chicken, turtle, frog, and spotted gar; details: cBRS3, tBRS3, sBRS3; inhibitor 25 μM 1 h, then GRP or NMB 10 nM; HEK293
Method: Intracellular calcium was measured using the non-wash calcium assay Fluo8 kit (ab112129, Abcam) according to the manufacturer’s instructions. Briefly, HEK293 cells were seeded in 24-well plates and were transfected with GRPR, NMBR, BRS3, or the empty vector plasmid pcDNA3.1-V5-His (300 ng) and incubated overnight at 37°C with 5% CO2. The next day, the cells were replated into a 96-well assay plate (black plate and clear bottom). After 12 h, growth media were aspirated, and calcium dye was added. […] The basal fluorescence intensity was recorded 15 times at 1 Hz for […]. The results were normalized to the average basal fluorescence intensity in ratio, and the peak response was used for the result calculation. Calcium fold was calculated using no stimulation data as standard value.

[3] = system: BRS3 of placental mammals (hBRS3, mBRS3, and aBRS3); test: Luciferase reporter, constitutive Gq activity with inhibitor, pooled; format: cell-based, human, mouse, aardvark; details: inhibitor 25 μM, 12 h, HEK293
Method: (§1) To detect constitutive activity of BRS3, HEK293 cells were seeded in 24-well plates and cotransfected with the CRE/NFAT-RE/SRF-RE/SRE luciferase reporter plasmids (50 ng), the BRS3 from different species, or BRS3 mutants with different doses (10 ng/50 ng/150 ng); after 24 h, cells were further incubated in serum-free media for another 12 h before luciferase assay. As for peptide supplementation treatment, HEK293 cells were cotransfected with the CRE/NFAT-RE/SRF-RE/SRE luciferase reporter plasmids (50 ng) and various genes (300 ng) of the bombesin receptor family. […] Luciferase activities were determined using luciferase assay kits (Beyotime, Shanghai, China) and normalized to β-galactosidase activity. All experiments were performed at least three times in triplicates. HEK293 cells transfected with pcDNA were used as a blank control in all luciferase experiments, and the fold was calculated compared to blank control.

mouse BRS3 (mBRS3) = test: Luciferase reporter, constitutive activity (WT, mutants, truncated; with/without inhibitor); format: cell-based; details: 25 μM inhibitor 12 h, HEK293, vs blank
Method: as §1

aardvark BRS3 (aBRS3) = test: as above; format: cell-based, Orycteropus afer; details: 25 μM inhibitor 12 h, HEK293, vs blank
Method: as §1

human BRS3 (hBRS3) = test: as above; format: cell-based; details: 25 μM inhibitor 12 h, HEK293, vs blank
Method: as §1

[4] = system: N-BRS3 receptors of placental mammals (N-hBRS3, N-mBRS3, and N-aBRS3); test: Luciferase reporter, N-terminal peptide stimulated, pooled; format: cell-based, human, mouse, aardvark; details: CRE/NFAT-RE/SRF-RE; 1,000 nM, 12 h, HEK293
Method: as §1

N-sBRS3 (spotted gar) = test: Luciferase reporter, N-terminal peptide stimulated, truncated receptor; format: cell-based, Lepisosteus oculatus; details: 1,000 nM, 12 h, HEK293
Method: as §1

[5] = system: pcDNA-transfected HEK293 cells; test: Luciferase reporter, N-terminal peptide stimulated, empty vector; format: cell-based, human; details: 1,000 nM peptide 12 h
Method: as §1

[6] = system: N-mBRS3 (mouse BRS3 with truncated N terminus); test: Luciferase reporter, N-terminal peptide stimulated, truncated receptor; format: cell-based; details: 1,000 nM peptide 12 h, HEK293
Method: as §1

[7] = system: N-hBRS3 (human BRS3 with truncated N terminus); test: as above; format: cell-based; details: 1,000 nM peptide 12 h, HEK293
Method: as §1

N-tBRS3 (turtle) = test: as above; format: cell-based, Chrysemys picta; details: 1,000 nM, 12 h, HEK293
Method: as §1

[8] = system: N-aBRS3 (aardvark BRS3 with truncated N terminus); test: as above; format: cell-based, Orycteropus afer; details: 1,000 nM peptide 12 h, HEK293
Method: as §1

N-cBRS3 (chicken) = test: as above; format: cell-based, Gallus gallus; details: 1,000 nM, 12 h, HEK293
Method: as §1

GPR39 = details: cited from earlier work
Text: Coevolution of GPCR–ligand pairs appears more pronounced in the polypeptide family, and there are approximately 30 orphan GPCRs from the polypeptide family, in which endogenous peptide ligands are predicted to bind to and activate these orphan GPCRs. Since GPCRs from the polypeptide family were considered to be paired with natural polypeptide ligands, many studies aim to identify endogenous peptides to deorphanize these orphan GPCRs in the polypeptide family. According to the evolution of GPCR-peptide pairs, after the 2R event during the origin of vertebrates, most orphan GP ...

- Inhibition of Ca2+ mobilization (in words) [2]: inhibits Ca^2+ ion levels
Molecule: CN1CCN(c2nc(C3=C(c4c[nH]c5ccccc45)C(=O)NC3=O)c3ccccc3n2)CC1 [Sotrastaurin]
- Inhibition of ERK phosphorylation (in words) [1]: inhibits the phosphorylation levels of ERK
- Inhibition of constitutive Gq signaling (in words) [3]: inhibits the constitutively activated Gq signaling pathway

- Luciferase fold (constitutive Gq signaling) with inhibitor (mouse BRS3 (mBRS3); line 1): 1.3903 fold
- Luciferase fold (constitutive Gq signaling) with inhibitor (mouse BRS3 (mBRS3); line 2): 1.6189 fold
- Luciferase fold (constitutive Gq signaling) with inhibitor (mouse BRS3 (mBRS3); line 3): 1.5046 fold
- Luciferase fold (constitutive Gq signaling) with inhibitor (aardvark BRS3 (aBRS3); line 1): 1.6524 fold
- Luciferase fold (constitutive Gq signaling) with inhibitor (aardvark BRS3 (aBRS3); line 2): 1.8796 fold
- Luciferase fold (constitutive Gq signaling) with inhibitor (aardvark BRS3 (aBRS3); line 3): 1.766 fold
- Luciferase fold (constitutive Gq signaling) with inhibitor (human BRS3 (hBRS3); line 1): 0.7675 fold
- Luciferase fold (constitutive Gq signaling) with inhibitor (human BRS3 (hBRS3); line 2): 0.8993 fold
- Luciferase fold (constitutive Gq signaling) with inhibitor (human BRS3 (hBRS3); line 3): 0.8334 fold
Molecule: C=C1C(=O)NC(C)C(=O)N(C)C(C)C(=O)NC(C(OC(=O)C(NC(C)=O)C(O)C(C)C)C(C)C)C(=O)N(C)C(C(C)OC)C(=O)OC(C)C(NC(C)=O)C(=O)OC(Cc2ccccc2)C(=O)N1C (stereo not drawn) [YM 254890] (Ac-T[PhLac][NMeDha]A[NMeA][X1][NMeT](Me); ester 1-C; configuration not given here)
- Inhibition of ERK phosphorylation (in words) [1]: inhibits the phosphorylation levels of ERK; also recorded: inhibited
- Inhibition of Ca2+ mobilization (in words) [2]: inhibits Ca^2+ ion levels; also recorded: inhibited
- Inhibition of constitutive Gq signaling (in words) [3]: inhibits the constitutively activated Gq signaling pathway

- Activation of truncated receptor (in words) (N-sBRS3 (spotted gar)): cannot be stimulated
- CRE luciferase fold ([6]; line 1): 1.2458 fold
- NFAT luciferase fold ([6]; line 1): 2.0847 fold
- SRF luciferase fold ([6]; line 1): 1.4898 fold
- CRE luciferase fold ([6]; line 2): 1.0945 fold
- NFAT luciferase fold ([6]; line 2): 1.8235 fold
- SRF luciferase fold ([6]; line 2): 1.6079 fold
- CRE luciferase fold ([6]; line 3): 1.1702 fold
- NFAT luciferase fold ([6]; line 3): 1.9541 fold
- SRF luciferase fold ([6]; line 3): 1.5488 fold
- CRE luciferase fold ([7]; line 1): 1.2968 fold
- NFAT luciferase fold ([7]; line 1): 1.5912 fold
- SRF luciferase fold ([7]; line 1): 1.6244 fold
- CRE luciferase fold ([7]; line 2): 1.4057 fold
- NFAT luciferase fold ([7]; line 2): 1.6741 fold
- SRF luciferase fold ([7]; line 2): 1.7709 fold
- CRE luciferase fold ([7]; line 3): 1.3512 fold
- NFAT luciferase fold ([7]; line 3): 1.6327 fold
- SRF luciferase fold ([7]; line 3): 1.6976 fold
- Activation of truncated receptor (in words) (N-tBRS3 (turtle)): cannot be stimulated
- CRE luciferase fold ([8]; line 1): 1.4026 fold
- NFAT luciferase fold ([8]; line 1): 2.2791 fold
- SRF luciferase fold ([8]; line 1): 1.3458 fold
- CRE luciferase fold ([8]; line 2): 1.3089 fold
- NFAT luciferase fold ([8]; line 2): 1.9413 fold
- SRF luciferase fold ([8]; line 2): 1.2427 fold
- CRE luciferase fold ([8]; line 3): 1.3558 fold
- NFAT luciferase fold ([8]; line 3): 2.1102 fold
- SRF luciferase fold ([8]; line 3): 1.2942 fold
- Activation of truncated receptor (in words) (N-cBRS3 (chicken)): cannot be stimulated
Molecule: MSQRQSQSPNQTLISITNDTETSSSVVSNDTTHKGWTGDNS-NH2 [N-terminal peptide of mBRS3, synthetic N terminus peptide of mouse BRS3]
- Activation of truncated receptors (in words) [4]: all CRE/NFAT-RE/SRF-RE signaling pathways could be activated
- CRE luciferase fold ([5]; line 1): 0.9705 fold
- NFAT luciferase fold ([5]; line 1): 0.9071 fold
- SRF luciferase fold ([5]; line 1): 0.9788 fold
- CRE luciferase fold ([5]; line 2): 1.0972 fold
- NFAT luciferase fold ([5]; line 2): 1.1044 fold
- SRF luciferase fold ([5]; line 2): 1.0087 fold
- CRE luciferase fold ([5]; line 3): 1.0338 fold
- NFAT luciferase fold ([5]; line 3): 1.0057 fold
- SRF luciferase fold ([5]; line 3): 0.9937 fold

Molecule: obestatin
- Activation of GPR39 (in words) (GPR39): activated
- Activation of GPR39, contrary view (in words) (GPR39): cannot be activated
